# Reference: article PMC4786642, “Catch-bond mechanism of the bacterial adhesin FimH” (Nature Communications, 2016)
# Like-named read-outs stand apart in the source and are kept apart here.
# Legend:
# FimHL^K12 [1] = molecular target: T1, FimHL^K12 (Escherichia coli, UniProt P08191); experiment: Equilibrium titration of FimHL with GN-FP-4 (fluorescence); assay type: binding, E. coli strain K12; design: The isolated lectin domains (residues 1–159) of both FimH variants; made in house; host or cells: E. coli HM125 (periplasm)
# T1 sequence (P08191 22-180): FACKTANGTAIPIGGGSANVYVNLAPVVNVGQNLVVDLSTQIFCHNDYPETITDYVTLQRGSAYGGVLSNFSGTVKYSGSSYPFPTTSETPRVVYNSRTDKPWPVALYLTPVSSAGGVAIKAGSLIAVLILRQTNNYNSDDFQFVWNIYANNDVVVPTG
# Procedure: (§1) The concentration of GN-FP-4 was kept constant at 1.0 or 2.0 nM and the concentration of FimHL was varied between 0 and 10 nM. The samples were equilibrated overnight, and their fluorescence intensities at 520 nm were recorded for 30 s and averaged. The experimental data were fitted according to equation (2).
# FimHL^F18 [2] = molecular target: T2, FimHL^F18 (Escherichia coli, UniProt P08191, N91S/S99N/V48A); experiment: as above; assay type: binding, E. coli strain F18; design: The isolated lectin domains (residues 1–159) of both FimH variants; made in house; host or cells: E. coli HM125 (periplasm), plasmid pfimHL^F18
# T2 sequence (P08191 22-180 V48A/N91S/S99N): as the sequence (P08191 22-180) above, with V27A, N70S, S78N counted along it
# Procedure: as §1
# FimHL^F18 [3] = molecular target: T2, FimHL^F18
# FimH^F18·DsG [4] = molecular target: T3, FimH^F18·DsG (Escherichia coli, UniProt P08191, N91S/S99N/V48A); conditions: for Kd: HM, FimH^F18·DsG
# T3 sequence (P08191 22-300 V48A/N91S/S99N, other chains not shown): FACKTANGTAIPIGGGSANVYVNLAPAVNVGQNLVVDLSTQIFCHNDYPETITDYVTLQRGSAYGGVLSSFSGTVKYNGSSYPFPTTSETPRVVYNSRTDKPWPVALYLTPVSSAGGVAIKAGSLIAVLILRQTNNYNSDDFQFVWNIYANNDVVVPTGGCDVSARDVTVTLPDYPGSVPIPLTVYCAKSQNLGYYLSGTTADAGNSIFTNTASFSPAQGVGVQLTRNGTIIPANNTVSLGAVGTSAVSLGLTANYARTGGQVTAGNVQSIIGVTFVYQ
# FimH^K12·DsG [5] = molecular target: T4, FimH^K12·DsG (Escherichia coli, UniProt P08191); assay type: binding, E. coli strain K12; conditions: for Kd: HM, FimH^K12·DsG
# T4 construct: those of the corresponding full-length FimH·DsG complexes; made in house; host or cells: E. coli HM125 (periplasm); DsG peptide synthetic, from JPT
# T4 sequence (P08191 22-300, other chains not shown): as the sequence (P08191 22-300 V48A/N91S/S99N, other chains not shown) above, with A27V, S70N, N78S counted along it
# Procedure: A constant FimH·DsG concentration of 1 or 2 μM was used. […] The fluorescence traces were globally fitted with Dynafit[59] according to a second-order binding and first-order dissociation reaction.
# FimHL^K12 [6] = molecular target: T1, FimHL^K12
# FimHL^K12 [7] = molecular target: T1, FimHL^K12; conditions: HM
# [8] = test system: E. coli piliated with FimH^F18 or FimH^F18-Ala188Asp; experiment: Cell tracking on mannose-BSA-coated surfaces, static conditions (strain not separated); assay type: cell-based
# Source text: (§2) The E. coli KB18 strain[67] was kindly provided by Professor Evgeni Sokurenko and served as host for the generation of recombinant strains. KB18 contains the pPKL114 plasmid, which encodes the whole fim operon with a translational stop linker upstream of the fimH gene. KB18 was co-transformed with the pGB2-24 plasmid, which was isolated from the ELT115 strain and encodes fimH^J96 (kindly provided by Professor Evgeni Sokurenko). Single-nucleotide point mutations were introduced in fimH^J96 using overlap extension PCR following standard molecular techniques to obtain fimH^F18 and fimH^F18-Ala188Asp. The PCR products were cloned into pGB2-24 by the ApaLI and SphI sites, and KB18 was transformed with the resulting plasmid.
# E. coli strains were grown from frozen stocks in LB medium supplemented with antibiotics (100 μg ml^−1 ampicillin and 25 μg ml^−1 chloramphenicol) until late log phase (OD600 of 1.0–1.2) and diluted to an OD600 of 0.01 before movie acquisition.
# Cell culture dishes (35 mm, Corning Inc., Corning, NY) were incubated with 50 μl of 50 μg ml^−1 1M-BSA in 0.02 M bicarbonate buffer for 75 min at 37 °C. The dishes were then washed three times and quenched with 0.1% PBS–BSA to remove unbound 1M-BSA and block remaining sites on the plastic surface to prevent nonspecific binding of bacteria. Controls were prepared by treating cell culture dishes with 0.1% PBS–BSA only. The bacterial suspension was added to the cell culture dishes for microscopy studies.
# Cell tracking was carried out at room temperature under static conditions. A bacterial suspension of 50 μl in the late logarithmic growth phase was placed onto the cell culture dishes (diluted to OD600 of 0.01), and a cover slide was placed on top. The delay between sample placement and start of the movie acquisition was about 1 min. Time-lapse movies were recorded with a × 20 phase contrast objective using a CMOS digital camera (The Imaging Source Europe, Bremen, Germany) mounted on a Nikon Ti Eclipse inverted microscope and using the NIS Elements Basic Research software (Nikon, Zurich, Switzerland). Phase contrast images in an ∼5-μm-thick surface layer were taken at four to five frames per second over 5 min. The dead time of movie acquisition was ∼1 min. The resulting images were segmented by creating a projection of the average intensities over all frames to remove the background and by subsequent thresholding using the Maximum Entropy method in Fiji[68] to obtain binary images (examples shown in Supplementary Movies 1 and 2). […] Five to seven independent movies were recorded for each experimental set-up: FimH^F18 or FimH^F18-Ala188Asp on 1M-BSA-coated dishes and FimH^F18 and FimH^F18-Ala188Asp on BSA-coated cell culture dishes. […]
# FimH^F18·DsG [9] = molecular target: T3, FimH^F18·DsG; conditions: HM; for Kd: FimH^F18·DsG
# Procedure: (§3) Measurements were performed with a stirred 1 × 0.4-cm quartz cuvette. […] The samples were equilibrated overnight, and their fluorescence intensities were recorded for 30 s and averaged.
# [10] = test system: FimH^F18-piliated E. coli; experiment: Cell tracking on mannose-BSA-coated surfaces, static conditions; assay type: cell-based; conditions: in the presence of 200 μM HM; FimH^F18-piliated bacteria
# Source text: as §2, with “plasmid. […]” for “plasmid.”
# (§4) Cell tracking was carried out at room temperature under static conditions. […] Time-lapse movies were recorded with a × 20 phase contrast objective using a CMOS digital camera (The Imaging Source Europe, Bremen, Germany) mounted on a Nikon Ti Eclipse inverted microscope and using the NIS Elements Basic Research software (Nikon, Zurich, Switzerland). […] Five to seven independent movies were recorded for each experimental set-up: FimH^F18 or FimH^F18-Ala188Asp on 1M-BSA-coated dishes and FimH^F18 and FimH^F18-Ala188Asp on BSA-coated cell culture dishes. […]
# [11] = test system: FimH^F18-Ala188Asp-piliated E. coli; experiment: as above; assay type: cell-based; conditions: in the presence of 200 μM HM; FimH^F18-Ala188Asp-piliated bacteria
# Source text: as §2, with “plasmid. […]” for “plasmid.”
# as §4
# FimH^K12·DsG [12] = assay type: binding, E. coli strain K12; conditions: HM, FimH variant K12
# Procedure: as §3
# FimH^K12·DsG [13] = molecular target: T4, FimH^K12·DsG; assay type: binding, E. coli strain K12; conditions: HM, FimH^K12·DsG
# Procedure: as §3
# FimHL^F18 [14] = molecular target: T2, FimHL^F18; conditions: HM
structure (smiles),measurement,setting,value
"O=C(NCCNC(=S)Nc1ccc2c(c1)C(=O)OC21c2ccc(O)cc2Oc2cc(O)ccc21)c1ccc(-c2ccc(O[C@H]3O[C@H](CO)[C@@H](O)[C@H](O)[C@@H]3O)c(Cl)c2)cc1 [GN-FP-4, 3′-Chloro-N-(2-(3-(3′,6′-dihydroxy-3-oxo-3H-spiro[isobenzofuran-1,9′-xanthen]-5-yl)-thioureido)ethyl)-4′-(α-D-mannopyranosyloxy)-biphenyl-4-carboxamide]",Kd,"FimHL^K12 [1]; FimHL^K12, equilibrium fluorescence titration, read-out: Kd",0.07 nM
same,Kd,"FimHL^K12 [1]; FimHL^K12, pH 7.4, 25 °C, read-out: Kd of GN-FP-4 binding",0.07 nM
same,fold higher affinity compared to HM,FimHL^K12 [1]; FimHL^K12 and FimHL^F18,16 fold
same,Kd,FimHL^F18 [2],0.00018 µM
"CCCCCCCO[C@H]1O[C@H](CO)[C@@H](O)[C@H](O)[C@@H]1O [HM, n-heptyl α-D-mannoside]",kon (M^−1 s^−1),"FimHL^F18 [3]; HM binding to FimHL^F18, pH 7.4, 25 °C, calculated with koff and Kd",1.2±0.4 × 10^5(d) M^−1 s^−1
same,koff (s^−1),"FimHL^F18 [3]; HM dissociation from FimHL^F18, pH 7.4, 25 °C",3.5±0.8 × 10^−4 s^−1
same,kon (M^−1 s^−1),"FimH^F18·DsG [4]; HM binding to FimH^F18·DsG, pH 7.4, 25 °C",4.9±0.1 × 10^6 M^−1 s^−1
same,koff (s^−1),"FimH^F18·DsG [4]; HM dissociation from FimH^F18·DsG, pH 7.4, 25 °C",5.8±0.1 × 10^1 s^−1
same,Kd,"FimH^F18·DsG [4]; read-out: Kd (amplitude analysis; M), pH 7.4, 25 °C, stopped-flow amplitudes",12 µM
same,Kd,"FimH^F18·DsG [4]; read-out: Kd (amplitudes of stopped-flow reactions), amplitude analysis",12 ± 1 µM
same,Kd,"FimH^F18·DsG [4]; read-out: koff/kon, pH 7.4, 25 °C, ratio of rate constants",12 µM
same,kon (M^−1 s^−1),"FimH^K12·DsG [5]; HM binding to FimH^K12·DsG, pH 7.4, 25 °C",5.0±0.1 × 10^6 M^−1 s^−1
same,koff (s^−1),"FimH^K12·DsG [5]; HM dissociation from FimH^K12·DsG, pH 7.4, 25 °C",2.2±0.1 × 10^1 s^−1
same,Kd,"FimH^K12·DsG [5]; pH 7.4, 25 °C, ratio of rate constants, read-out: koff/kon",4.3 µM
same,Kd,"FimH^K12·DsG [5]; pH 7.4, 25 °C, stopped-flow amplitudes, read-out: Kd (amplitude analysis; M)",4.2 µM
same,Kd,FimH^K12·DsG [5]; read-out: Kd (amplitudes of stopped-flow reactions),4.2 ± 0.3 µM
same,kon (M^−1 s^−1),"FimHL^K12 [6]; HM binding to FimHL^K12, pH 7.4, 25 °C, calculated with koff and Kd",1.8±0.6 × 10^5(d) M^−1 s^−1
same,koff (s^−1),"FimHL^K12 [6]; HM dissociation from FimHL^K12, pH 7.4, 25 °C",2.0±0.4 × 10^−4 s^−1
same,Kd,"FimHL^K12 [7]; FimHL^K12, displacement of GN-FP-4",0.0011 µM
same,Kd,"FimHL^K12 [7]; read-out: Kd (equilibrium titration; M), FimHL^K12, pH 7.4, 25 °C, from competition equilibria with GN-FP-4",0.0011 µM
same,reduction of permanent attachment to 1M-BSA,[8]; in the presence of 200 μM HM,85%
same,reduction of transient attachment to 1M-BSA,[8]; in the presence of 200 μM HM,75%
same,transient and permanent attachment to 1M-BSA,[8]; in the presence of HM,significantly reduced
same,bacterial velocity on 1M-BSA,[8]; upon addition of 100 µM HM,increased
same,Kd (FimH·DsG)/Kd (FimHL),FimH^F18·DsG [9]; FimH variant F18,"3,300"
same,Kd,"FimH^F18·DsG [9]; read-out: Kd (equilibrium titration; M), pH 7.4, 25 °C",9.9 µM
same,Kd,"FimH^F18·DsG [9]; read-out: equilibrium dissociation constant (Kd), equilibrium titration",9.9 µM
same,mean velocity on 1M-BSA,[10],6.5 μm s^−1
same,mean velocity on 1M-BSA,[11],5.9 μm s^−1
same,Kd (FimH·DsG)/Kd (FimHL),FimH^K12·DsG [12],"3,300"
same,Kd,"FimH^K12·DsG [13]; equilibrium titration, read-out: equilibrium dissociation constant (Kd)",3.6 µM
same,Kd,"FimH^K12·DsG [13]; pH 7.4, 25 °C, read-out: Kd (equilibrium titration; M)",3.6 µM
same,Kd,"FimHL^F18 [14]; FimHL^F18, displacement of GN-FP-4",0.003 µM
same,Kd,"FimHL^F18 [14]; read-out: Kd (equilibrium titration; M), FimHL^F18, pH 7.4, 25 °C, from competition equilibria with GN-FP-4",0.003 µM
